Measured values from patent US10000739B2, “Method and culture medium for improving pluripotent stem cell differentiation inducing efficiency” (NATIONAL UNIVERSITY CORPORATION KUMAMOTO UNIVERSITY, priority 2010, dated 2018).
Like-named read-outs stand apart in the source and are kept apart here.

Experiments:
human iPS cells [1] = assay: Differentiation of human iPS cells into endoderm cells on mmcM15 cells, immunofluorescent staining for Sox17 and Oct3/4; assay type: cell-based; conditions: staining Day 10, vs control culture medium
Description: (§1) In performing a whole mount immunohistochemistry test, ES cells or iPS cells were placed on Nunc Theranox Colerslips 24-well type (Nunc). Cells were fixed at room temperature for 20 minutes in 4% paraformaldehyde, and washed sufficiently with 0.1% Tween-containing phosphate buffered saline (PBS-T). In PBS containing 1% TritonX-100, the cells were infiltrated at room for 10 minutes, and incubated for 1 hour in a blocking solution (×5 Blocking One, Nacalai Tesque), then, primary antibodies in the blocking solution were added to the sample, and incubated at 4° C. overnight. The sample was washed sufficiently with PBS-T, and mounted with PermaFluor Aqueous Mounting culture medium (IMMUNON). A confocal image was obtained using Leica Spectral Confocal Scanning System, TCS-SP2 (Leica).
(§2) Antibodies used for detection are as described below. Rabbitanti-α-fetoprotein (AFP, Dako), goat anti-albumin (Sigma), rabbit anti-Pdx1 (Chemicon), mouse anti-Oct3/4 (Santa Cruz), goat anti-Sox17 (R&D). As secondary antibodies, Alexa568-labeled goat anti-rabbit antibody and donkey anti-goat antibody, and Alexa488-labeled goat anti-mouse antibody and goat anti-rabbit antibody, donkey anti-goat antibody (Molecular Probes) were used. Cells were counter-stained with DAPI (Roche). The numbers of Sox17 and Oct3/4 positive cells were quantified using ImageXpress (Molecular Devices Corporation).
Differentiation of human iPS cells into endoderm cells was induced using endoderm differentiation culture media deprived of one amino acid for each culture medium. For induction of differentiation into endoderm cells, an endoderm differentiation inducing method using mmcM15 cells was used (see, non-patent document 6).
As the culture medium, the following media were used depending on the culturing period. From initiation of culturing (Day 0) until Day 6 or Day 8 of culturing, PRMI 1640 culture medium (Invitrogen) containing 50 units/ml penicillin and 50 μg/ml streptomycin (GIBCO), 2 mM L-glutamine (GIBCO), 100 μM β-mercaptoethanol (Sigma), non-essential amino acid (GIBCO), 100 ng/ml activin (R&D Systems) and B27 culture medium additive (Invitrogen) added was used as an endoderm differentiation culture medium.
From Day 6 or Day 8 until Day 10, amino acid-deprived culture media obtained by removing one amino acid from PRMI 1640 culture medium containing 50 units/ml penicillin and 50 μg/ml streptomycin, 2 mM L-glutamine, 100 μM β-mercaptoethanol, 100 ng/ml activin and B27 culture medium additive added, or a culture medium not deprived of an amino acid (control culture medium) was used as an endoderm differentiation culture medium.
Specifically, mmcM15 cells were seeded as supporting cells on a gelatin-coated 96-well plate. Human iPS cells were treated with Y27632 (10 μM) from 24 hours before seeding, and peeled using 0.25% trypsin. The peeled human iPS cells were seeded on mmcM15 cells at a cell concentration of 1×10^4 cells/well. The seeded human iPS cells were cultured for 24 hours under 37° C. and 5% CO2 in ES culture medium (ReproStem, ReproCell) containing 10 μM Y27632 and 5 ng/ml bFGF added. After 24 hours, cells were washed once with PBS, then, the culture medium was changed to an endoderm differentiation culture medium (Day 0). Until Day 6 or Day 8 of culturing, the endoderm differentiation culture medium was changed every other day, and human iPS cells were cultured under 37° C. and 5% CO2. On Day 6 or Day 8, the culture medium was changed to an amino acid-deprived culture medium or a control culture medium. Human iPS cells were cultured until Day 10 of culturing using an amino acid-deprived culture medium or a control culture medium. On Day 10, human iPS cells were subjected to immunofluorescent staining, and the proportions of positive cells for an endoderm differentiation marker (Sox17) and an undifferentiation marker (Oct3/4) were quantitatively analyzed. The proportion of the positive cells based on those stained with DAPI was calculated.

human iPS cells [2] = assay: Addition of methionine metabolites to methionine-deprived or methyl donor-deprived culture medium, Oct3/4 and Sox17 positive cells counted; assay type: cell-based; conditions: for effect of reducing Oct3/4 positive cells owing to methionine deprivation: added to methionine-deprived culture medium (ΔMet) Day 8 to Day 10; for effect of reducing Oct3/4 positive cells: added to methyl donor-deprived culture medium (ΔMD) Day 8 to Day 10
Description: For investigating an influence of a methionine and methyl donor-deprived culture medium on differentiation into endoderm cells, a culture medium was deprived of methionine and methyl donors on Day 8 of differentiation, and cells were cultured until Day 10 and the numbers of Oct3/4 and Sox17 positive cells were evaluated by antibody staining. Specifically, mmcM15 cells were seeded as supporting cells on a gelatin-coated 96-well plate. Human iPS cells were treated with Y27632 (10 μM) from 24 hours before seeding, and peeled using 0.25% trypsin. The peeled human iPS cells were seeded on mmcM15 cells at a cell concentration of 1×10^4 cells/well. The seeded human iPS cells were cultured for 24 hours under 37° C. and 5% CO2 in ES culture medium containing Y27632 and bFGF added. After 24 hours, the culture medium was changed to an endoderm differentiation culture medium (Day 0). The endoderm differentiation culture medium was changed every other day and human iPS cells cultured under 37° C. and 5% CO2 from the day of initiation of culture (Day 0) to Day 8. On Day 8, the culture medium was changed to various culture media. One obtained by removing […]⋅folate⋅vitamin B12⋅betaine⋅choline from the culture medium was used as a methyl donor-deprived culture medium. Human iPS cells were cultured until Day 10 using various culture media, and Oct3/4 and Sox17 positive cells were counted.
It is known that methionine is metabolized to give cysteine (Cys). […] In the figure, δMD denotes a culture medium not containing methionine, folic acid, vitamin B12, betaine and choline as a methyl donor.

human iPS cells [3] = tested on: human iPS cells
Description: as §1, §2
The methionine addition concentration between Day 8 and Day 10 was […], 0.1, 1.0, 5.0, 10.0, 20.0, 50.0, 100, 200 and 500 μM.
On Day 10, the culture medium was changed to a liver differentiation culture medium ([…] containing 10% KSR, 2000 mg/l D-glucose, 50 units/ml penicillin and 50 μg/ml streptomycin, 2 mM L-glutamine, 100 μM β-mercaptoethanol, […] human recombinant HGF and 1 μM dexamethasone (hereinafter, referred to as “2000KSR-DMEM culture medium”)), and cultured under 37° C. and 5% CO2 until Day 20. During Day 10 to Day 20, the culture medium was changed every other day. On Day 20, human iPs cells were subjected to immunofluorescent staining, and the proportions of Oct3/4 positive cells and AFP positive cells were compared for every methionine concentration.
On Day 10, the culture medium was changed to a liver differentiation culture medium (2000KSR-DMEM culture medium), and human iPS cells were cultured under 37° C. and 5% CO2 until Day 30. During Day 10 to Day 30, the culture medium was changed every other day.

human iPS cells [4] = tested on: human iPS cells; remark: listed apart in the source
Description: For investigating an influence of a proline-added differentiation culture medium on differentiation into hepatocytes, differentiation of human iPS cells into liver precursor cells was induced using a liver differentiation culture medium containing proline added at a concentration of 1 mM.
On a gelatin-coated 96-well plate, mmcM15 cells were seeded as supporting cells. Human iPS cells were treated with Y27632 (10 μM) from 24 hours before seeding, and peeled using 0.25% trypsin. The peeled human iPS cells were seeded on mmcM15 cells at a cell concentration of 1×10^4 cells/well. The seeded human iPS cells were cultured for 24 hours under 37° C. and 5% CO2 in ES culture medium containing Y27632 and bFGF added. After 24 hours, the culture medium was changed to an endoderm differentiation culture medium (Day 0).
In the same manner as in Example 3, the endoderm differentiation culture medium was changed every other day and human iPS cells were cultured under 37° C. and 5% CO2, from the day of initiation of culturing (Day 0) to Day 8.
On Day 10, the culture medium was changed to a liver differentiation culture medium (2000KSR-DMEM culture medium, control culture medium) or Pro-containing 2000KSR-DMEM culture medium obtained by further adding 1 mM proline to a control culture medium, and human iPS cells were cultured until Day 19 under 37° C. and 5% CO2. During Day 10 to Day 19, the culture medium was changed every other day. On Day 19, human iPS cells were subjected to immunofluorescent staining with an anti-Oct3/4 antibody and an anti-AFP antibody.

[5] = amino acid-deprived endoderm differentiation culture medium Day 6 to Day 10
[6] = amino acid-deprived endoderm differentiation culture medium Day 8 to Day 10
[7] = methionine 0 μM to 0.1 μM Day 8 to Day 10, Day 20, FIG. 7C
[8] = methionine 1 μM to 20 μM Day 8 to Day 10, Day 20, FIG. 7C
[9] = methionine 50 μM or more Day 8 to Day 10, Day 20, FIG. 7C
[10] = Day 19, methionine deprivation Day 8 to Day 10 and/or 1 mM proline Day 10 to Day 19, vs control group

Row | Structure (SMILES) | Oct3/4 positive cell ratio (human iPS cells [1]; [5]) | Oct3/4 positive cell ratio (human iPS cells [1]; [6]) | Sox17 positive cell ratio (human iPS cells [1]; [6]) | other results
1 | N=C(N)NCCC[C@H](N)C(=O)O [Arg, arginine] | decreased | remarkably decreased | increased | –
2 | N[C@@H](CS)C(=O)O [Cys, cysteine] | decreased | remarkably decreased | increased | effect of reducing Oct3/4 positive cells owing to methionine deprivation (human iPS cells [2]): has no influence
3 | NC(=O)CC[C@H](N)C(=O)O [Gln] | – | – | increased | –
4 | NCC(=O)O [Gly] | – | – | increased | –
5 | N[C@@H](CCS)C(=O)O [Hcy, homocysteine] | – | – | – | effect of reducing Oct3/4 positive cells owing to methionine deprivation (human iPS cells [2]): the effect of reducing Oct3/4 positive cells is inhibited; effect of reducing Oct3/4 positive cells (human iPS cells [2]): had not influence
6 | N[C@@H](Cc1c[nH]cn1)C(=O)O [His, histidine] | decreased | remarkably decreased | – | –
7 | CC[C@H](C)[C@H](N)C(=O)O [Ile, isoleucine] | decreased | remarkably decreased | – | –
8 | CC(C)C[C@H](N)C(=O)O [Leu, leucine] | decreased | remarkably decreased | increased | –
9 | NCCCC[C@H](N)C(=O)O [Lys, lysine] | decreased | remarkably decreased | – | –
10 | CSCC[C@H](N)C(=O)O [Met, methionine] | decreased | remarkably decreased | increased | effect of reducing Oct3/4 positive cells owing to methionine deprivation (human iPS cells [2]): the effect of reducing Oct3/4 positive cells is inhibited; effect of reducing Oct3/4 positive cells (human iPS cells [2]): inhibited the effect of reducing Oct3/4 positive cells; AFP positive cells (human iPS cells [3]; [7]): present uniformly; amount of remaining Oct3/4 positive cells (human iPS cells [3]; [7]): small; number of AFP positive cells (human iPS cells [3]; [8]): decrease in the number of AFP positive cells is not recognized; number of Oct3/4 positive cells (human iPS cells [3]; [8]): increases slightly; number of Oct3/4 positive cells (human iPS cells [3]; [9]): remarkable increase; number of Sox17 positive cells (human iPS cells [3]; [9]): remarkable decrease; proportion of Oct3/4 positive cells on Day 20 (human iPS cells [3]; methionine added Day 8 to Day 10 at various concentrations up to 500 μM, then liver differentiation culture medium): increased depending on the methionine concentration; proportion of AFP positive cells (human iPS cells [3]; methionine concentrations of 50 μM or more Day 8 to Day 10, Day 20, FIG. 7B): decreased
11 | N[C@@H](Cc1ccccc1)C(=O)O [Phe, phenylalanine] | decreased | remarkably decreased | – | –
12 | Nc1ncnc2c1ncn2[C@@H]1O[C@H](CSCC[C@H](N)C(=O)O)[C@@H](O)[C@H]1O [SAH, S-adenosylhomocystein] | – | – | – | effect of reducing Oct3/4 positive cells owing to methionine deprivation (human iPS cells [2]): the effect of reducing Oct3/4 positive cells is inhibited; effect of reducing Oct3/4 positive cells (human iPS cells [2]): had not influence
13 | C[S+](CC[C@H](N)C(=O)O)C[C@H]1O[C@@H](n2cnc3c(N)ncnc32)[C@H](O)[C@@H]1O (stereo partly shown) [SAM, S-adenosylmethionine] | – | – | – | effect of reducing Oct3/4 positive cells owing to methionine deprivation (human iPS cells [2]): the effect of reducing Oct3/4 positive cells is inhibited; effect of reducing Oct3/4 positive cells (human iPS cells [2]): inhibited the effect of reducing Oct3/4 positive cells
14 | N[C@@H](CO)C(=O)O [Ser] | – | – | increased | –
15 | C[C@@H](O)[C@H](N)C(=O)O [Thr, threonine] | decreased | remarkably decreased | – | –
16 | N[C@@H](Cc1c[nH]c2ccccc12)C(=O)O [Trp, tryptophan] | decreased | remarkably decreased | – | –
17 | N[C@@H](Cc1ccc(O)cc1)C(=O)O [Tyr, tyrosine] | decreased | remarkably decreased | without change | –
18 | CC(C)[C@H](N)C(=O)O [Val, valine] | decreased | remarkably decreased | – | –
19 | O=C(O)[C@@H]1CCCN1 [proline] | – | – | – | AFP positive cells (human iPS cells [4]; [10]): larger; Oct3/4 positive cells (human iPS cells [4]; [10]): decreased; AFP and Oct3/4 positive cells (human iPS cells [4]; proline 10 mM): the same result as in the case of 1 mM addition
